ChEMBL document CHEMBL1201862, “PubChem BioAssay data set” (2004)
The source made the active and inactive calls.

How the values were obtained:
[1] = tested on: H4; assay: Luminescence Cell-Based Dose Response HTS to Identify Activators of 5'UTR Stem-Loop Driven Prion Protein mRNA Translation in H4 Neuroglioblastoma Cells. [Related pubchem assays: 1829 (Project Summary), 1814 (Primary HTS)]; assay type: functional; details: Homo sapiens
[2] = biological target: Heat shock protein HSP 90-alpha (Homo sapiens, UniProt P07900); assay type: functional, organism-based
[3] = Luminescence Cell-Based Dose Response HTS to Identify Activators of Luciferase Translation or Activity in H4 […] Cells. [Related pubchem assays: 1829 (Project Summary), 1814 (Primary HTS)]; assay type: functional
[4] = Luminescence Cell-Based Dose Confirmation HTS to Identify Activators of 5'UTR Stem-Loop Driven Alpha-Synuclein mRNA Translation in H4 Neuroglioblastoma Cells. [Related pubchem assays: 1829 (Project Summary), 1814 (Primary HTS)]; assay type: functional
[5] = biological target: T1, Microphthalmia-associated transcription factor (Homo sapiens, UniProt O75030); assay: reducers of TRPM1 reporter luminescence, concentration series – cell-based, SK-MEL-5, cherry-picked, set 3, MITF inhibitor project, dose response (AID 493073); assay type: functional;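 further: SK-MEL-5 melanoma cells with luciferase driven by the MITF target TRPM1 promoter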
T1 sequence (O75030 whole entry): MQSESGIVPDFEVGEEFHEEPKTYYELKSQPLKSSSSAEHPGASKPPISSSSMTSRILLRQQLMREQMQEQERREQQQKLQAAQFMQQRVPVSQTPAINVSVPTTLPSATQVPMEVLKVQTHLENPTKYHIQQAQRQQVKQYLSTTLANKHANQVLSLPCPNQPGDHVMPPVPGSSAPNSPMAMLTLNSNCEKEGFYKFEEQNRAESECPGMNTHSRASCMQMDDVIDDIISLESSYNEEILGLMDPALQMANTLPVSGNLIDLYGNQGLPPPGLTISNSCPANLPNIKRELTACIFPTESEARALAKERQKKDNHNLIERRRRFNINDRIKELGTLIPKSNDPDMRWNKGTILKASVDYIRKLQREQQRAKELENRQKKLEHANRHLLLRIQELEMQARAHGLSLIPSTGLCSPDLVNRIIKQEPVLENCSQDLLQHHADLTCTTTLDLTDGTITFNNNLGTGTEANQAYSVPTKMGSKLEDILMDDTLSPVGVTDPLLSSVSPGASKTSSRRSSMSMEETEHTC

[6] = tested on: INS1; assay: INS-1E survival protection against cytokine death – cell-based, luminescence, retest, dose response (AID 449756); assay type: functional; details: Rattus norvegicus;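 further: cell death triggered by IL-1 beta plus TNF-alpha plus IFN-gamma mixture; protective hits raise ATP signal compared with cytokine alone wells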
[7] = biological target: Nonstructural protein 1 (Influenza A virus, UniProt Q194T2); assay type: functional, Influenza A virus (A/California/07/2009(H1N1))
Nonstructural protein 1, sequence (Q194T2 whole entry): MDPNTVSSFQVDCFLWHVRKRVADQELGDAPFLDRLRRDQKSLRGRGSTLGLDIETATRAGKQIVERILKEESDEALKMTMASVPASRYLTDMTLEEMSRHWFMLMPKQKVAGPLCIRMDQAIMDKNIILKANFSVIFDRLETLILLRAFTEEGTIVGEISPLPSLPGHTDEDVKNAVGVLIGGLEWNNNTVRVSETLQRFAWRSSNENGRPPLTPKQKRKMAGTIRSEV

[8] = biological target: T2, Heat shock factor protein 1 (Mus musculus, UniProt P38532); assay: enhancement of HSF1-driven luciferase signal – cell-based, NIH3T3, luminescence, dose retest, confirmation (AID 435004); assay type: functional;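 further: stress induced by proteasome inhibitor MG132 added 30 min after compound; luciferase reporter driven by HSF1 response element in NIH3T3 cells; actives raise luminescence as potentiators of the MG132 stress response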
T2 sequence (P38532 whole entry): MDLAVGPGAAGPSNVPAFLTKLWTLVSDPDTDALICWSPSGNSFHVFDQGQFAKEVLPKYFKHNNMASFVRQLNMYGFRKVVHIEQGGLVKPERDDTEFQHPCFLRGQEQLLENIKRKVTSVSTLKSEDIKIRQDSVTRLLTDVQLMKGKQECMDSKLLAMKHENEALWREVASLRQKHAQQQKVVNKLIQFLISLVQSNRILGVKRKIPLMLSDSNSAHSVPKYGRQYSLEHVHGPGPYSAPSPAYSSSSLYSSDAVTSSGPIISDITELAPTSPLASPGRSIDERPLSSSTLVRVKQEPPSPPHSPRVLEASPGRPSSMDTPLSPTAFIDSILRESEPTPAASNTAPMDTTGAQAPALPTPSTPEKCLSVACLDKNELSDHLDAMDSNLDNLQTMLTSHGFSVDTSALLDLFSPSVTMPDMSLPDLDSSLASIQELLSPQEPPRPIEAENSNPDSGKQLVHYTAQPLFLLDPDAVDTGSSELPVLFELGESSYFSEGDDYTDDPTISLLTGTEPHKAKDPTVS

[9] = biological target: T3, Replicative DNA helicase DnaB (Mycobacterium tuberculosis, UniProt P9WMR3); assay: DnaB intein splicing inhibitors, dose response, biochemical, cell-free fluorescence (AID 449749); assay type: functional
T3 sequence (P9WMR3 whole entry): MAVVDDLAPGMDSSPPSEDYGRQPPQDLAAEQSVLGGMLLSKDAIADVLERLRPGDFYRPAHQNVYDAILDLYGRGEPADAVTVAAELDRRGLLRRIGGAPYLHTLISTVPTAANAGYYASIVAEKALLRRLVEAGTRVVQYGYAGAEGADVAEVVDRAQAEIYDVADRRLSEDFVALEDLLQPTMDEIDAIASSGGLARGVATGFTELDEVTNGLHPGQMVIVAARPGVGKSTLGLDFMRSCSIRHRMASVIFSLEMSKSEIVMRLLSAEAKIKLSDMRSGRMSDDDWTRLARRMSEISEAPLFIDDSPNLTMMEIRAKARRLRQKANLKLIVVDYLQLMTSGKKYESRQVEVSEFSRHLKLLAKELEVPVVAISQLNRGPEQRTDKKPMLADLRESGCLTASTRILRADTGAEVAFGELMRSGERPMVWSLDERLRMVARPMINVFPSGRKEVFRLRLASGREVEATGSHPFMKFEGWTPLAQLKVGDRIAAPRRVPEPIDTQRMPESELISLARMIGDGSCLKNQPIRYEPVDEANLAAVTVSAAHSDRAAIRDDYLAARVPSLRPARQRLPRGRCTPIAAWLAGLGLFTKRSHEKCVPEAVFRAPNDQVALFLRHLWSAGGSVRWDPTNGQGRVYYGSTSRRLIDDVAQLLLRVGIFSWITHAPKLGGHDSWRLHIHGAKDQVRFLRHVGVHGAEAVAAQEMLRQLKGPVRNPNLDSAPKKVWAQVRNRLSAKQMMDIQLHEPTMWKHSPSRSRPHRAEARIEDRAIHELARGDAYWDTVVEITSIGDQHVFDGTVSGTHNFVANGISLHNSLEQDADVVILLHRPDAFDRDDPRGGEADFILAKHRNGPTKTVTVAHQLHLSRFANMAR

[10] = biological target: T4, Protein RecA (Mycobacterium tuberculosis, UniProt P9WHJ3); assay: Fluorescence Cell-Free Homogeneous Dose Retest to Identify Inhibitors of RecA-Intein Splicing Activity. [Related pubchem assays (depositor defined):AID2097, AID2223, AID489010, AID492950]; assay type: functional
T4 sequence (P9WHJ3 whole entry): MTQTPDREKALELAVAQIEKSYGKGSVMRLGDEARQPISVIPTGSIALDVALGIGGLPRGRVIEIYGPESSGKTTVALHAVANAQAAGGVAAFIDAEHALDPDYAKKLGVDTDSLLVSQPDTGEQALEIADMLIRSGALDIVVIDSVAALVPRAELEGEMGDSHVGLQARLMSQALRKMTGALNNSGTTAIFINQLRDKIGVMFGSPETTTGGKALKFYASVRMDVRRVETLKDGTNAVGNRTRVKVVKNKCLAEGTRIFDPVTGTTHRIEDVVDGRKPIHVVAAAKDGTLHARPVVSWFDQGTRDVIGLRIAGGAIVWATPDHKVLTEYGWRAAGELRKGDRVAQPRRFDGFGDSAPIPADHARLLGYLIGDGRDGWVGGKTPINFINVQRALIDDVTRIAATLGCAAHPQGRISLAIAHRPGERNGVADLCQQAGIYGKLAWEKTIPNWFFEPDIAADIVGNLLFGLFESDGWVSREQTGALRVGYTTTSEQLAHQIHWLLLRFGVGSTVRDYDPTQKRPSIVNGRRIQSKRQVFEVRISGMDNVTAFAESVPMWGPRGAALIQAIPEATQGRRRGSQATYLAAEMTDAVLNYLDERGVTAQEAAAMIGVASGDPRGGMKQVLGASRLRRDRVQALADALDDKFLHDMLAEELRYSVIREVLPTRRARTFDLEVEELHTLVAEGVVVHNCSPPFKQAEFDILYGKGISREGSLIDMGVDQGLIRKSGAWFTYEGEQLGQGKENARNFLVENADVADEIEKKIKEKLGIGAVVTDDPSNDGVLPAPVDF

[11] = HGIII-sPLA2 enzyme inhibition potency – biochemical, QFRET, IC50, dose response (AID 743457);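 further: green fluorescence rise as the enzyme cleaves BODIPY PC-A2 in liposomes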
[12] = biological target: Estrogen receptor beta (Homo sapiens, UniProt Q92731);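 further: recombinant ER-beta bound to coactivator SRC1 peptide in presence of estradiol agonist; inhibitors block coactivator peptide binding and lower the FRET signal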
Estrogen receptor beta, sequence (Q92731 whole entry): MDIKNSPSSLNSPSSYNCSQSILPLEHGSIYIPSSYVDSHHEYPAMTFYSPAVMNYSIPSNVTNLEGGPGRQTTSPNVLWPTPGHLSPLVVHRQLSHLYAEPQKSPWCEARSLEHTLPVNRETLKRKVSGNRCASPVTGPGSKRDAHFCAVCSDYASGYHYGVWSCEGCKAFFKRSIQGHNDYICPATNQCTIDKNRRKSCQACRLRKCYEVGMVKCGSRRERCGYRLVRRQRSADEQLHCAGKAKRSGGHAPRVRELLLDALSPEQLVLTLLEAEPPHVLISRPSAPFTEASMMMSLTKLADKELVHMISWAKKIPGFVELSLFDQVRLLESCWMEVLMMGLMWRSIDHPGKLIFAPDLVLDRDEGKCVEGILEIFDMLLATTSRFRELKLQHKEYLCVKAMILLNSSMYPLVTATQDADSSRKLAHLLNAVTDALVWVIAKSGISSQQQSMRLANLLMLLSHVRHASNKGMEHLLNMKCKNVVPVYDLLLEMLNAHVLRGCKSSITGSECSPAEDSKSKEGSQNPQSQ

[13] = biological target: Large T antigen (Simian virus 40, UniProt P03070); assay type: functional, Betapolyomavirus macacae;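 further: Confirmatory-stage PubChem screen for compounds that inhibit SV40 T antigen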
Large T antigen, sequence (P03070 whole entry): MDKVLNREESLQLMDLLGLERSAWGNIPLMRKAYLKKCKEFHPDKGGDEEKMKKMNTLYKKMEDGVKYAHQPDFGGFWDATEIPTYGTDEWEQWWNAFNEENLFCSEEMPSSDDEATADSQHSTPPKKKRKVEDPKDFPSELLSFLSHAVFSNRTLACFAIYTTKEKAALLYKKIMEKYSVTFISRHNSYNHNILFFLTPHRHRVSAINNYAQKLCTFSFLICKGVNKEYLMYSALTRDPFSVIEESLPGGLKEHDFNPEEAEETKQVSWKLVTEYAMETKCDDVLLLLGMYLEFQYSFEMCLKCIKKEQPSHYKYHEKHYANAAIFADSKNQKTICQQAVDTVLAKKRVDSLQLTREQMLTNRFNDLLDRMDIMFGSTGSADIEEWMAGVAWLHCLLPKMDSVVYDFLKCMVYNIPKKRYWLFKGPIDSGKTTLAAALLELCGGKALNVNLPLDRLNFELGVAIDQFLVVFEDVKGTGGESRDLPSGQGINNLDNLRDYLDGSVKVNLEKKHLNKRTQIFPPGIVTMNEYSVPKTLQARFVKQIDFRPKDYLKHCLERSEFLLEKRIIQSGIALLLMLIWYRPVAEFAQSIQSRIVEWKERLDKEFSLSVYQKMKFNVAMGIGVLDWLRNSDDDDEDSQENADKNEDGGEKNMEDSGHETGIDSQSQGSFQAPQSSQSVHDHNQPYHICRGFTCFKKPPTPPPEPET

[14] = intracellular Trypanosoma cruzi inhibitors in host cells – cell-based, plate reader, cherry-pick samples, set 3, dose response (AID 651818); assay type: functional;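 further: compounds incubated with infected cells for about four days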
[15] = microbe, parasite or virus in culture; assay type: functional; details: Mycobacterium tuberculosis
[16] = Luminescence Cell-Based Dose Retest to Confirm Inhibitors of Cancer Stem Cells. [Related pubchem assays (depositor defined):AID2717, AID2721]; assay type: functional; details: Homo sapiens
[17] = biological target: Paired box protein Pax-8 (Homo sapiens, UniProt Q06710); assay: PAX8 transcriptional activity inhibition in RMG-I – RMG-I cells, luciferase, cherry-pick, dose response (AID 687027); assay type: functional, cell-based;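 further: luciferase reporter driven by Pax8 target thyroperoxidase promoter measured by SteadyGlo luminescence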
Paired box protein Pax-8, sequence (Q06710 whole entry): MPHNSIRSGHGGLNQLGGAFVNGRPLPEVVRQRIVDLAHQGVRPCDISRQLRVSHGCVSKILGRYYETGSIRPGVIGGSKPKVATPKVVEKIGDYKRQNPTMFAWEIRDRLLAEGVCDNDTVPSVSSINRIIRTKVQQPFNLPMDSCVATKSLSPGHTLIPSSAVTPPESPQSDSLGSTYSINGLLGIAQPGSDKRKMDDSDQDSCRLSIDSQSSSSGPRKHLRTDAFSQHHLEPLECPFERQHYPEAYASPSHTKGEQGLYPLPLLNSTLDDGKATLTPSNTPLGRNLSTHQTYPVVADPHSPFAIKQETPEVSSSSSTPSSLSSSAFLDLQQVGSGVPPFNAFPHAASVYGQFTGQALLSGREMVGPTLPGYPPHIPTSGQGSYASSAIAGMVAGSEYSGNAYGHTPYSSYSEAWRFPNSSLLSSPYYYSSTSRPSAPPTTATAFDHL

[18] = IGROV1 cell killing – plate reader, dry powder samples, PAX8 inhibitor project, dose response (AID 743043); assay type: functional, cell-based; details: IGROV-1
[19] = biological target: T5, DNA repair protein RAD52 homolog (Homo sapiens, UniProt P43351); assay type: functional, biochemical
T5 sequence (P43351 whole entry): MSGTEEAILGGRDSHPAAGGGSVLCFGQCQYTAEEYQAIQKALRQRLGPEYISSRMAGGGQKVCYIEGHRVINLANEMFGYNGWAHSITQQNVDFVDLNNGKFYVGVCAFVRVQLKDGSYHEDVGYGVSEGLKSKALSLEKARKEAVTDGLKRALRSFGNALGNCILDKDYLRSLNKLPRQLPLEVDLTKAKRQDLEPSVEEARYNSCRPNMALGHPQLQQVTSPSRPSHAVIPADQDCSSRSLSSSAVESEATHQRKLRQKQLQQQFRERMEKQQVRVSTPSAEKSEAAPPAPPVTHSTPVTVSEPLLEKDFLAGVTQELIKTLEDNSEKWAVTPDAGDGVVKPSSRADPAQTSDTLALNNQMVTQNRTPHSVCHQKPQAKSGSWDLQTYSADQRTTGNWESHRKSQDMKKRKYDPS

For O=C1CC(c2ccccc2)=NN1c1nc(-c2ccccc2)cs1, the EC50 [1] was > 120 µM (not active), the AC50 [2] was 3.34 µM (active) and the EC50 [3] was 11.4 µM (active). For the same compound, the EC50 [4] was 13.2 µM (active).
For CN(C)C1CCN(Cc2cc(COCc3ccccc3)c3cccnc3c2O)C1 (stereo unspecified), the AC50 [5] was 9.99 µM (active), the AC50 [6] was 2.78 µM (active) and the IC50 [7] was 5.98 µM (active).
For Cc1c(C#N)c(NC(=O)CCl)n(Cc2ccccc2)c1C, the AC50 [5] was 11.2 µM (active), the EC50 [8] was > 260 µM (inactive) and the AC50 [9] was 21.5 µM (active). For the same compound, the EC50 [10] was 3.39 µM (active).
In the case of CCCn1c(N=C(S)Nc2ccccc2)nc2ccccc21, the IC50 [11] is reported as 112 µM (inactive).
For Cc1cccc(-n2c(SCCC(=O)O)nnc2-c2cccs2)c1C, the IC50 [12] was > 50 µM (not active).
In the case of Nc1cccc(Nc2nc(OC(C(F)(F)F)C(F)(F)F)nc(OC(C(F)(F)F)C(F)(F)F)n2)c1, the IC50 [11] is reported as > 122 µM (inactive).
With CCOC(=O)C(=NC(C)CC)NNc1cccc(C(F)(F)F)c1 (stereo unspecified) the IC50 [11] was > 122 µM (inactive).
With Cc1sc2nc(C3CC3)nc(SCC(=O)NCc3ccco3)c2c1C the AC50 [2] was 5.75 µM (active).
For Cc1ccc(NC(S)=NNC(=O)c2nnn(-c3ccccc3)c2C)cc1, the IC50 [11] was > 122 µM (inactive).
With CC(NC(=O)c1ccc(Br)cc1)c1ccc2c(c1)CCCC2 (stereo unspecified) the AC50 [2] was 2.75 µM (active).
For N#Cc1c(N/C=C2\C(=O)NC(=O)N(Cc3ccco3)C2=O)sc2c1CCCC2, the IC50 [13] was 32.6 µM (active) and the IC50 [12] was > 50 µM (not active).
In the case of CSC(=S)NN=C(C)c1cccc(C)n1, the AC50 [2] is reported as 23.7 µM (active) and the IC50 [7] is reported as 1.1 µM (active).
In the case of COc1ccc(S(=O)(=O)Nc2ccc3c(c2)C(=O)N([C@H](C)CO)C[C@H](C)[C@H](CN(C)C(=O)Nc2ccc(C(F)(F)F)cc2)OCCCC[C@@H](C)O3)cc1, the AC50 [14] is reported as 2.64 µM (active).
In the case of C[C@@H]1CN([C@H](C)CO)C(=O)c2cccc(NC(=O)NC3CCCCC3)c2O[C@@H]1CN(C)Cc1ccc(-c2ccccc2)cc1, the AC50 [14] is reported as 3.37 µM (active).
For Cc1ccc(S(=O)(=O)Nc2ccc3c(c2)C(=O)N([C@H](C)CO)C[C@H](C)[C@H](CN(C)Cc2ccc(C(=O)Nc4ccccc4N)cc2)OCCCC[C@@H](C)O3)cc1, the AC50 [14] was 2.44 µM (active).
In the case of C[C@H]1CN([C@@H](C)CO)C(=O)Cc2cc(NS(=O)(=O)c3ccc(F)cc3)ccc2O[C@@H]1CN(C)Cc1ccc(C(F)(F)F)cc1, the AC50 [14] is reported as 4.8 µM (active).
For Cc1ccc(S(=O)(=O)Nc2cccc3c2O[C@@H](CN(C)Cc2ccc(-c4ccccc4)cc2)[C@@H](C)CN([C@H](C)CO)C3=O)cc1, the AC50 [14] was 3.16 µM (active).
With Cc1ccc(S(=O)(=O)Nc2cccc3c2O[C@@H](CN(C)Cc2ccc(C(=O)Nc4ccccc4N)cc2)[C@H](C)CN([C@@H](C)CO)C3=O)cc1 the AC50 [14] was 3.2 µM (active).
For CCCCNc1c(-c2ccc(SC3CCCCC3)c(OC)c2)nc2ccc(C)cn12, the CC50 [15] was > 40 µM (active) and the AC50 [16] was 3.1 µM (active).
In the case of Cc1ccccc1-c1ccc([C@@H]2[C@@H](CO)N3CCCCN(C(=O)NC4CCCC4)C[C@H]23)cc1, the AC50 [17] is reported as 21.6 µM (active) and the AC50 [18] is reported as 52.2 µM (active).
In the case of C[C@@H]1CN([C@H](C)CO)C(=O)c2cc(NC(=O)Nc3ccc(F)cc3)ccc2O[C@@H](C)CCCCO[C@H]1CN(C)C(=O)C1CCCCC1, the AC50 [17] is reported as 5.55 µM (active) and the AC50 [18] is reported as 50.3 µM (active).
For COc1ccc2c(c1)c[n+](C)c1c3cc(OC)c(OC)cc3ccc21, the IC50 [11] was > 122 µM (inactive) and the AC50 [19] was 0.558 µM (active).
